Experimental data taken from paper PMC10890569, “The Sequence Characteristics and Binding Properties of the Odorant-Binding Protein SvelOBP1 from Sympiezomias velatus (Coleoptera: Curculionidae) to Jujube Volatiles” (Life, 2024).
Like-named read-outs stand apart in the source and are kept apart here.

What was measured:
SvelOBP1 [1] = assay: Competitive fluorescence binding assay (displacement of 1-NPN); set-up: species or system Sympiezomias velatus; details: for IC50: 2 μM recombinant SvelOBP1/1-NPN, ligand 0-16 μM, 20 mM Tris-HCl pH7.4, three replicates, read-out: IC50 (ligand concentration replacing 50% of initial fluorescence of SvelOBP1/1-NPN mixture)
Protocol: (§1) The fluorescent probe 1-N-phenyl-naphthylamine (1-NPN) was used to evaluate the binding affinity of SvelOBP1 protein to different ligands. Forty-three host plant volatiles from leaves of jujube trees were selected as putative ligands (Table 2). Fluorescence-based ligand binding assays were performed on an F-2700 fluorescence spectrophotometer (Hitachi, Tokyo, Japan). The excitation wavelength was 337 nm, and the emission spectra were in the range from 370 to 550 nm. First, all tested ligands and 1-NPN were dissolved in chromatographic methanol and diluted to 1 mM as the stock solution. Second, the recombinant protein was diluted to 2 μM with 20 mM Tris-HCl (pH7.4), and 2 mL of the protein solution was placed in a 1 cm light path quartz cuvette.
(§2) The dissociation constants K1-NPN of 1-NPN to SvelOBP1 were calculated by GraphPad Prism 8.0 software with non-linear regression for the one site-specific binding method. The inhibitory constant (Ki) of each ligand binding to SvelOBP1 was calculated with Equation (1). IC50 is the ligand concentration replacing 50% of the initial fluorescence intensity of the SvelOBP1/1-NPN mixture. [1-NPN] represents the free concentration of 1-NPN. […] (1) Ki=IC50/(1+[1−NPN]/K1−NPN)

SvelOBP1 [2] = assay: Binding of fluorescent probe 1-NPN to SvelOBP1 (titration, Scatchard plot); set-up: species or system Sympiezomias velatus; details: 2 μM SvelOBP1 titrated with 1-NPN 0-16 μM, pH7.4; read-out: dissociation constant (Kd) of 1-NPN
Protocol: as §1, §2

SvelOBP15 = target: SvelOBP15; set-up: method as in PMID 35711318; details: cited from earlier work
[3] = Ki=IC50/(1+[1-NPN]/K1-NPN), 2 μM SvelOBP1/1-NPN, pH7.4, mean ± SEM, read-out: Ki (inhibitory constant)
[4] = class in words by Ki, read-out: binding affinity class

## CC12CCC(CC1)C(C)(C)O2 [1,3,3-trimethyl-2-oxabicyclo [2.2.2]octane]
SvelOBP1 [1]; mean ± SEM
  IC50: 13.81 ± 0.13 µM
SvelOBP1 [1]; [3]
  Ki: 11.48 ± 0.11 µM

## CC(=O)c1ccc(C)c(C)c1 [1-(3,4-dimethylphenyl)ethanone]
SvelOBP1 [1]; mean ± SEM
  IC50: > 16 µM

## CCc1ccc(C(C)=O)cc1 [1-(4-ethylphenyl)ethanone]
SvelOBP1 [1]; mean ± SEM
  IC50: 13.1 ± 0.16 µM
SvelOBP1 [1]; [3]
  Ki: 10.9 ± 0.13 µM
SvelOBP1 [1]; [4]
  Ki: 10 to 16 µM

## c1ccc(Nc2cccc3ccccc23)cc1 [1-NPN, 1-N-phenyl-naphthylamine]
SvelOBP1 [2]
  Kd: 4.92 ± 0.04 µM

## C=C(C)C1CC=C(C)CC1 (stereo not drawn) [1-methyl-4-prop-1-en-2-ylcyclohexene]
SvelOBP1 [1]; mean ± SEM
  IC50: 13.11 ± 0.02 µM
SvelOBP1 [1]; [3]
  Ki: 10.9 ± 0.01 µM

## C=C1C2CCC(C2)C1(C)C (stereo not drawn) [2,2-dimethyl-3-methylidenebicyclo [2.2.1]heptane]
SvelOBP1 [1]; mean ± SEM
  IC50: > 16 µM

## O=C1CCCC1C1CCCC1 (stereo not drawn) [2-cyclopentylcyclopentan-1-one]
SvelOBP1 [1]; mean ± SEM
  IC50: > 16 µM

## C=CCc1ccc(O)c(OC)c1 [2-methoxy-4-prop-2-enylphenol]
SvelOBP1 [1]; mean ± SEM
  IC50: > 16 µM

## CC1=CCC(C(C)C)C=C1 (stereo not drawn) [2-methyl-5-propan-2-ylcyclohexa-1,3-diene]
SvelOBP1 [1]; mean ± SEM
  IC50: 11.69 ± 0.07 µM
SvelOBP1 [1]; [3]
  Ki: 9.71 ± 0.06 µM

## CC(C)=Cc1ccccc1 [2-methylprop-1-enylbenzene]
SvelOBP1 [1]; mean ± SEM
  IC50: > 16 µM

## CC(C)C=O [2-methylpropanal]
SvelOBP1 [1]; mean ± SEM
  IC50: > 16 µM

## CC1=CCC2C(C1)C2(C)C (stereo not drawn) [3,7,7-trimethylbicyclo [4.1.0]hept-3-ene]
SvelOBP1 [1]; mean ± SEM
  IC50: 14.56 ± 0.07 µM
SvelOBP1 [1]; [3]
  Ki: 12.1 ± 0.06 µM

## C=CC(C)=CCC=C(C)C [3,7-dimethylocta-1,3,6-triene]
SvelOBP1 [1]; mean ± SEM
  IC50: 11.13 ± 0.06 µM
SvelOBP1 [1]; [3]
  Ki: 9.25 ± 0.05 µM

## C=CC(C)(O)CCC=C(C)C (stereo not drawn) [3,7-dimethylocta-1,6-dien-3-ol]
SvelOBP1 [1]; mean ± SEM
  IC50: 13.6 ± 0.16 µM
SvelOBP1 [1]; [3]
  Ki: 11.3 ± 0.13 µM

## C=CC(=C)CCC=C(C)C [7-methyl-3-methylideneocta-1,6-diene]
SvelOBP1 [1]; mean ± SEM
  IC50: > 16 µM

## CC1=CC[C@H]2C[C@@H]1C2(C)C [(1S,5S)-2,6,6-trimethylbicyclo [3.1.1]hept-2-ene]
SvelOBP1 [1]; mean ± SEM
  IC50: > 16 µM

## CC(C)=CCC/C(C)=C/CO [(2E)-3,7-dimethylocta-2,6-dien-1-ol]
SvelOBP1 [1]; mean ± SEM
  IC50: > 16 µM

## CC(C)=CCC/C(C)=C/C(=O)O [(2E)-3,7-dimethylocta-2,6-dienoic acid]
SvelOBP1 [1]; mean ± SEM
  IC50: > 16 µM

## CC(C)=CCC/C(C)=C/CC/C(C)=C/CO [(2E,6E)-3,7,11-trimethyldodeca-2,6,10-trien-1-ol]
SvelOBP1 [1]; mean ± SEM
  IC50: 14.4 ± 0.17 µM
SvelOBP1 [1]; [3]
  Ki: 11.9 ± 0.14 µM

## C=C/C(C)=C/C/C=C(\C)CCC=C(C)C [(3E,6E)-3,7,11-trimethyldodeca-1,3,6,10-tetraene]
SvelOBP1 [1]; [3]
  Ki: 8.73 ± 0.09 µM

## C=CC(C)(O)CC/C=C(\C)CCC=C(C)C (stereo not drawn) [(6E)-3,7,11-trimethyldodeca-1,6,10-trien-3-ol]
SvelOBP1 [1]; mean ± SEM
  IC50: > 16 µM

## CC(C)=CCC/C(C)=C/CC/C(C)=C/CC/C=C(\C)CC/C=C(\C)CCC=C(C)C [(6E,10E,14E,18E)-2,6,10,15,19,23-hexamethyltetracosa-2,6,10,14,18,22-hexaene]
SvelOBP1 [1]; mean ± SEM
  IC50: > 16 µM

## C/C(=C\CO)CCCC(C)CCCC(C)CCCC(C)C (stereo not drawn) [(E)-3,7,11,15-tetramethylhexadec-2-en-1-ol]
SvelOBP1 [1]; mean ± SEM
  IC50: > 16 µM

## CCC/C=C/CO [(E)-hex-2-en-1-ol]
SvelOBP1 [1]; mean ± SEM
  IC50: 15.44 ± 0.14 µM
SvelOBP1 [1]; [3]
  Ki: 12.83 ± 0.12 µM

## CC/C=C\CCO [(Z)-hex-3-en-1-ol]
SvelOBP1 [1]; [3]
  Ki: 7.98 ± 0.08 µM
SvelOBP1 [1]; [4]
  Ki: 5 to 10 µM
SvelOBP15
  Ki: > 16 µM

## CC(C)COC(=O)CCCCC(=O)OCC(C)C [Bis(2-methylpropyl) hexanedioate]
SvelOBP1 [1]; mean ± SEM
  IC50: > 16 µM

## CCCCOC(C)=O [Butyl acetate]
SvelOBP1 [1]; mean ± SEM
  IC50: 13.2 ± 0.47 µM
SvelOBP1 [1]; [3]
  Ki: 10.9 ± 0.39 µM

## CCCCOC(=O)c1ccccc1C(=O)OCCCC [Dibutyl benzene-1,2-dicarboxylate]
SvelOBP1 [1]; [3]
  Ki: 6.66 ± 0.03 µM

## CCCCCCCCCCCC [Dodecane]
SvelOBP1 [1]; mean ± SEM
  IC50: > 16 µM

## CCOC(=O)C(C)CC (stereo not drawn) [Ethyl 2-methylbutyrate]
SvelOBP1 [1]; mean ± SEM
  IC50: 11.28 ± 0.1 µM
SvelOBP1 [1]; [3]
  Ki: 9.37 ± 0.08 µM

## CCOC(=O)CC(C)C [Ethyl 3-methylbutanoate]
SvelOBP1 [1]; mean ± SEM
  IC50: > 16 µM

## C/C=C(\C)C(=O)OCC [Ethyl (E)-2-methylbut-2-enoate]
SvelOBP1 [1]; mean ± SEM
  IC50: > 16 µM

## CCCC(=O)OCC [Ethyl butyrate]
SvelOBP1 [1]; mean ± SEM
  IC50: 14.2 ± 0.16 µM
SvelOBP1 [1]; [3]
  Ki: 11.8 ± 0.13 µM

## CCCCC(=O)OCC [Ethyl pentanoate]
SvelOBP1 [1]; mean ± SEM
  IC50: 14.1 ± 0.31 µM
SvelOBP1 [1]; [3]
  Ki: 11.7 ± 0.26 µM

## CCCCCCCCCCCCCCCC(=O)O [Hexadecanoic acid]
SvelOBP1 [1]; mean ± SEM
  IC50: 14.1 ± 0.33 µM
SvelOBP1 [1]; [3]
  Ki: 11.7 ± 0.27 µM
SvelOBP1 [1]; [4]
  Ki: 10 to 16 µM

## COC(=O)c1ccccc1O [Methyl 2-hydroxybenzoate]
SvelOBP1 [1]; mean ± SEM
  IC50: > 16 µM

## C=CC(O)CCCCC (stereo not drawn) [Oct-1-en-3-ol]
SvelOBP1 [1]; mean ± SEM
  IC50: 15.18 ± 0.13 µM
SvelOBP1 [1]; [3]
  Ki: 12.61 ± 0.11 µM

## OCc1ccccc1 [Phenylmethanol]
SvelOBP1 [1]; mean ± SEM
  IC50: 11.3 ± 0.27 µM
SvelOBP1 [1]; [3]
  Ki: 9.4 ± 0.23 µM

## CCC/C=C/COC(C)=O [[(E)-hex-2-en-1-yl] acetate]
SvelOBP1 [1]; mean ± SEM
  IC50: > 16 µM

## CCC/C=C/COC(=O)CCCCC [[(E)-hex-2-enyl] hexanoate]
SvelOBP1 [1]; mean ± SEM
  IC50: 14.51 ± 0.06 µM
SvelOBP1 [1]; [3]
  Ki: 12.06 ± 0.05 µM

## CC/C=C\CCOC(=O)C(C)CC (stereo not drawn) [[(Z)-hex-3-enyl] 2-methylbutanoate]
SvelOBP1 [1]; mean ± SEM
  IC50: 13.4 ± 0.2 µM
SvelOBP1 [1]; [3]
  Ki: 11.2 ± 0.16 µM

## CC/C=C\CCOC(=O)CC(C)C [[(Z)-hex-3-enyl] 3-methylbutanoate]
SvelOBP1 [1]; mean ± SEM
  IC50: 14.4 ± 0.16 µM
SvelOBP1 [1]; [3]
  Ki: 11.9 ± 0.13 µM

## CC/C=C\CCOC(C)=O [[(Z)-hex-3-enyl] acetate]
SvelOBP1 [1]; mean ± SEM
  IC50: 14.45 ± 0.11 µM
SvelOBP1 [1]; [3]
  Ki: 12.01 ± 0.09 µM

## CC/C=C\CCOC(=O)CCC [[(Z)-hex-3-enyl] butanoate]
SvelOBP1 [1]; mean ± SEM
  IC50: 15.5 ± 0.9 µM
SvelOBP1 [1]; [3]
  Ki: 12.9 ± 0.75 µM
